This note sets out measurements from patent publication US20120245137A1 (Zalicus Pharmaceuticals Ltd., priority 2009, published 2012).

Type in all cases: cell-based
Experiment [1] concerns the target N-type calcium channel subunits (α1B, α2δ, and β3a) (Homo sapiens, UniProt Q00975). As to the kind of experiment: Block of Cav2.2 channel, whole cell voltage clamp, manual and PatchXpress. The settings on record: Table 5; table follows Assay Example 3 (whole cell voltage clamp / PatchXpress); assay not given. The essentials: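 Percent block taken as current amplitude ratio with versus without compound, applied in rising doses; IC50 fitted where one cell received multiple doses. Protocol: 50 ms pulses to +20 mV at 0.067 Hz from […] or −90 mV holding; P/n leak subtraction, no junction-potential correction; manual and PatchXpress recordings.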

In experiment [2] the target is human α1G T-type channels (Homo sapiens, UniProt O43497). As to the kind of experiment: T-type calcium channel block, whole cell patch clamp, α1G. The settings on record: HEK cells stably expressing human α1G; mainly non-inactivated protocol; values above 10,000 nM represented as 10000. The method, boiled down: (§1)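 Read-out: current block in whole-cell patch clamp of HEK 293 cells stably expressing human α1G or α1H subunits. Compounds were perfused locally in external solution (0.1-0.01% DMSO) under resting and inactivating voltage protocols.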
A general note: Patch clamp records ionic current or voltage across a cell membrane.

Experiment [3] deals with human α1H T-type channels (Homo sapiens, UniProt O95180). As to the kind of experiment: T-type calcium channel block, whole cell patch clamp, α1H. To be noted: HEK cells stably expressing human α1H; mainly non-inactivated protocol; values above 10,000 nM represented as 10000. The essentials: as §1

Sequence of N-type calcium channel subunits (α1B, α2δ, and β3a) (Q00975 whole entry): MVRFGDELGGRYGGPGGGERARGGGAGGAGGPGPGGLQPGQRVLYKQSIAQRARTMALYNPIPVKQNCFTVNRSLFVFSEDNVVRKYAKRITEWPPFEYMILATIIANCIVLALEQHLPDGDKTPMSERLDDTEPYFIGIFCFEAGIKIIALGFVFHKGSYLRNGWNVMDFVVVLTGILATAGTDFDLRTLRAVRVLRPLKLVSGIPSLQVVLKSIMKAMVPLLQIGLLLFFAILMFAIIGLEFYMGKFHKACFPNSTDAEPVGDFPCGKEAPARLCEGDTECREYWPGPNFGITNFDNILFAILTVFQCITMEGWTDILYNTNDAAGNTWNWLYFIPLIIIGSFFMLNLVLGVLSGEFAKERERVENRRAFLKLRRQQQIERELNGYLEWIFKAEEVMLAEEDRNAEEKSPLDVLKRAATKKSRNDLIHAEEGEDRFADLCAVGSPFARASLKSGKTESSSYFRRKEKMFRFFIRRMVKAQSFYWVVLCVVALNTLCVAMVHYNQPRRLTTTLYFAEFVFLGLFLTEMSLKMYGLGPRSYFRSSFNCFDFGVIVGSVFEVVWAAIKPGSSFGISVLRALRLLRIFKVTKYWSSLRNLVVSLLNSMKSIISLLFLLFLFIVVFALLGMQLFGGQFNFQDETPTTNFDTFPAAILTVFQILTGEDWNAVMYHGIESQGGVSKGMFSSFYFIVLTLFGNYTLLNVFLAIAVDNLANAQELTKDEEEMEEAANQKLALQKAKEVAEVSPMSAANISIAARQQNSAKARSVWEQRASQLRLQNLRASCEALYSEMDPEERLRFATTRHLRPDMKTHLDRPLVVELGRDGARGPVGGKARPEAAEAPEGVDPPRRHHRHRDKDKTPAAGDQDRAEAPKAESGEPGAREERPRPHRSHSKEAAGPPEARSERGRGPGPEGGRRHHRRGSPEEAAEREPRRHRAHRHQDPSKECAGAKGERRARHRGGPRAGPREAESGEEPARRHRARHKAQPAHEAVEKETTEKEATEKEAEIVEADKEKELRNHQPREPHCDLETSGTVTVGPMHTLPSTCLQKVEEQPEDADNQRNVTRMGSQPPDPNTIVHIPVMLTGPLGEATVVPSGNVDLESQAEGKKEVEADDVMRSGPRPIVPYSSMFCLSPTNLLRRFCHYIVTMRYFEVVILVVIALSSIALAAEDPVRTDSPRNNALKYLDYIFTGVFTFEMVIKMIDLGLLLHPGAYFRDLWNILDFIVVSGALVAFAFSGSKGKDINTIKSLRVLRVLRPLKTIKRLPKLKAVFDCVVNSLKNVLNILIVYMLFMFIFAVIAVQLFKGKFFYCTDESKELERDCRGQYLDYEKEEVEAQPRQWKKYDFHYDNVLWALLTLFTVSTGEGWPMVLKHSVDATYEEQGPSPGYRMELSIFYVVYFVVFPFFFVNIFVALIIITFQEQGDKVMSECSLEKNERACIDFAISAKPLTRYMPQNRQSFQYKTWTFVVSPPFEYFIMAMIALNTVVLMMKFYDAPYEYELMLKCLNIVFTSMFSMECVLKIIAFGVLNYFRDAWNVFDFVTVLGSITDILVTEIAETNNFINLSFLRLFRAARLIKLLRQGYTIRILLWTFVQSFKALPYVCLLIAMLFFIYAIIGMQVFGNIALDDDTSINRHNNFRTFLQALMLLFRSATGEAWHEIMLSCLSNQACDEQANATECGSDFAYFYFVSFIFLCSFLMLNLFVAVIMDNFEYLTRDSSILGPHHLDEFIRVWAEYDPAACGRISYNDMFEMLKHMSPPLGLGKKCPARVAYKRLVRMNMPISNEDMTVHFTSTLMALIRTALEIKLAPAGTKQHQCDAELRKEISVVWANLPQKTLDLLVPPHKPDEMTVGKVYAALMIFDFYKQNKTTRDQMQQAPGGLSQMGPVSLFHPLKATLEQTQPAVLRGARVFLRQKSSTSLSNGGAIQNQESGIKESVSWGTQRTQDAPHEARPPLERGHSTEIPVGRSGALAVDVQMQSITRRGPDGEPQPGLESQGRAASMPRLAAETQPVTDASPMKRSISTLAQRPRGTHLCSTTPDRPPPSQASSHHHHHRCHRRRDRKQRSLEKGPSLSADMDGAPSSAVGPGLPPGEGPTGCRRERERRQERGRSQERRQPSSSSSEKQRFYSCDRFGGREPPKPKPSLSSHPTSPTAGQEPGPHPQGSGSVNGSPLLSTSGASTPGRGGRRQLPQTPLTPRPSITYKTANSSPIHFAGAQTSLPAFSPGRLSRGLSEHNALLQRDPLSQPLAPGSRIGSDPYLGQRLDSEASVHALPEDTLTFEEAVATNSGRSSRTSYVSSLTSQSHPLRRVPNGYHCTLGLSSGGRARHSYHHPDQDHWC
Sequence of N-type calcium channel subunits (α1B, α2δ, and β3a) (P54289 25-1103 partner): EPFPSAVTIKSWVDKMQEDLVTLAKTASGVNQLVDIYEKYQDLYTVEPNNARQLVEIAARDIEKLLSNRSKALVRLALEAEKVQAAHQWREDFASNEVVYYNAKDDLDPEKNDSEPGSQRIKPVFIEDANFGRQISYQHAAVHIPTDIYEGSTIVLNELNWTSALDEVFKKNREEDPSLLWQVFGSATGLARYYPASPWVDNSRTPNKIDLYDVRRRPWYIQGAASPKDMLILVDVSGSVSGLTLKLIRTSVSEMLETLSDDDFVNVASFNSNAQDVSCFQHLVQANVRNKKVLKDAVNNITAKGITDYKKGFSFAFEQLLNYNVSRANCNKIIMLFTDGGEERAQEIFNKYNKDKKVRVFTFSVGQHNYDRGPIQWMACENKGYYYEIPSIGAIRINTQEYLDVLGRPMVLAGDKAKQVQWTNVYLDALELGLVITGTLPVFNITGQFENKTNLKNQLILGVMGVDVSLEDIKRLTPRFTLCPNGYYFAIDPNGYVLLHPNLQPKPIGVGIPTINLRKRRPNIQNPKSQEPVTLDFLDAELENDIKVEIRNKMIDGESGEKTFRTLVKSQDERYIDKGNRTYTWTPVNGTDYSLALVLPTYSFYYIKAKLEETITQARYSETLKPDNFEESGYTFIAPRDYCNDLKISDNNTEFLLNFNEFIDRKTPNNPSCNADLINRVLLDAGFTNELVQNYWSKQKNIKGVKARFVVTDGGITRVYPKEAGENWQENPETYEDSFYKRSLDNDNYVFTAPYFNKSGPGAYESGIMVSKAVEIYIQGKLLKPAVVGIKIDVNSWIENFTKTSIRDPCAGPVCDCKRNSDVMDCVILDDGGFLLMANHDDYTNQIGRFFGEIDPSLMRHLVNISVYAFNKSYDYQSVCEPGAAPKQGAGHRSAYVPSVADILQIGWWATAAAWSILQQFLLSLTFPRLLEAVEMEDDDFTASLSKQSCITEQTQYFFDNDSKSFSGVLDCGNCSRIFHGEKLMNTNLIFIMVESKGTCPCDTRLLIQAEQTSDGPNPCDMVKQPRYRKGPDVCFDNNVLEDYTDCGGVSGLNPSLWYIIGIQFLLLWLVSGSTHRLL
Sequence of N-type calcium channel subunits (α1B, α2δ, and β3a) (P54284 whole entry partner): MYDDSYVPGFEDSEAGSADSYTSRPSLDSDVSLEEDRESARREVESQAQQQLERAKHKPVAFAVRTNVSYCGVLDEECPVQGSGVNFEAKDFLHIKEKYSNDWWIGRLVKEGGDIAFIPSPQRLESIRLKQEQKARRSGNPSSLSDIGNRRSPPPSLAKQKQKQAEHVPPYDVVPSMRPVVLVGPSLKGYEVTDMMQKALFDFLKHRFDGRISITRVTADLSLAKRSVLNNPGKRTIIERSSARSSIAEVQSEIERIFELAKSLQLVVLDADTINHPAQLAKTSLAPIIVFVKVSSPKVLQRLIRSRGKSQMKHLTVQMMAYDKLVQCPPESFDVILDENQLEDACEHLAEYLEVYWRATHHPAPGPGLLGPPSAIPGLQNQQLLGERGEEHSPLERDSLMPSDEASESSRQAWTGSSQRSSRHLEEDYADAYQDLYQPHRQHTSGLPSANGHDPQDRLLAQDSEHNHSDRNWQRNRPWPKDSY

The IC50 is the concentration at which inhibition is half-maximal. For the molecule `CC(C)(N)CN(C(=O)C(F)(F)F)[C@H]1CC[C@@](F)(S(=O)(=O)c2cccc(C(F)(F)F)c2)CC1` [Compound 306, N-(2-amino-2-methylpropyl)-2,2,2-trifluoro-N-((1S,4S)-4-tluoro-4-(3-(trifIuoromethyl)phenylsulfonyl)cyclohexyl) acetamide], the IC50 in experiment [1] amounted to 530 nM; in experiment [2], 4960 nM; in experiment [3], 7350 nM.
The like results for `O=C(NC1CCC(S(=O)(=O)c2cccc(C(F)(F)F)c2)CC1)c1ccc(C(F)(F)F)nc1` (stereo not drawn) [Compound 8, 6-(trifluoromethyl)-N-(4-(3-(trifluoromethyl)phenylsulfonyl)cyclohexyl)nicotinamide] were, in that order, 2300 nM, over 10000 nM and 6710 nM.
The like results for `O=C(CN[C@H]1C[C@@H](S(=O)(=O)c2cccc(C(F)(F)F)c2)C1)NC1CCC(F)(F)CC1` [Compound 431, N-(4,4-difluorocyclohexyl)-2-((1S,3S)-3-(3-(trifluoromethyl)phenylsulfonyl)cyclobutylamino) acetamide] were, in that order, 1840 nM, 920 nM and 240 nM.
On the same counts, the results for `O=C(N[C@H]1CC[C@@](F)(S(=O)(=O)c2cccc(C(F)(F)F)c2)CC1)c1ccc(Cl)c(Cl)c1` [Compound 269, 3,4-dichloro-N-((1S,4S)-4-fluoro-4-(3-(trifluoromethyl)phenylsulfonyl)cyclohexyl)benzamide] are 190 nM, over 10000 nM and over 10000 nM.
`O=C(N[C@H]1CC[C@@](F)(S(=O)(=O)c2cccc(OC(F)(F)F)c2)CC1)c1ccnn1CC(F)(F)F` [Compound 253]: the IC50 amounted to 320 nM in experiment [1], 1190 nM in experiment [2] and 460 nM in experiment [3].
The like results for “2-(4,4-difluoropiperidin-1-yl)-N- ((1R,4R)-4-((3- (trifluoromethyl)phenylsulfonyl) methyl)cyclohexyl)acetamide [Compound 166]” were, in that order, 750 nM, over 10000 nM and 8470 nM.
On to `CC(C)(C)CC(=O)N[C@H]1CC[C@@](F)(S(=O)(=O)c2cccc(C(F)(F)F)c2)CC1` [Compound 278, N-((1S,4S)-4-fluoro-4-(3-(trifluoromethyl)phenylsulfonyl)cyclohexyl)-3,3-dimethylbutanamide], for which the values for the IC50 in experiment [1], in experiment [2] and in experiment [3] were 280 nM, 2480 nM and 2230 nM, respectively.
On the same counts, the results for `O=C(N[C@H]1CC[C@@](F)(S(=O)(=O)c2cccc(C(F)(F)F)c2)CC1)c1cnccc1C(F)(F)F` [Compound 267] are 790 nM, 2630 nM and 490 nM.
The like results for `O=C(CN[C@H]1CC[C@@H](S(=O)(=O)c2cccc(C(F)(F)F)c2)CC1)NC1CCCCC1` [Compound 56, N-cyclohexyl-2-((1S,4S)-4-(3-(trifluoromethyl)phenylsulfonyl)cyclohexylamino)acetamide] were, in that order, 260 nM, 820 nM and 480 nM.
On the same counts, the results for `CC([C@H]1C[C@H](NC(=O)c2ccc(F)c(Cl)c2)C1)S(=O)(=O)c1cccc(C(F)(F)F)c1` (stereo partly drawn) [Compound 434, 3-chloro-4-fluoro-N-((1R,3R)-3-( (R)-1-(3-(trifluoromethyl)phenylsulfonyl)ethyl)cyclobutyl)benzamide] are 210 nM, 1130 nM and 680 nM.
`O=C(N[C@H]1CC[C@@](F)(S(=O)(=O)c2cccc(C(F)(F)F)c2)CC1)[C@@H]1C[C@@H](c2ccccc2)CN1` [Compound 285, (2S,4S)-N-((1S,4R)-4-fluoro-4-(3-(trifluoromethyl)phenylsulfonyl)cyclohexyl)-4-phenylpyrrolidine-2-carboxamide]: the figures for the IC50 in experiment [1], in experiment [2] and in experiment [3] were 360 nM, over 10000 nM and 1280 nM, respectively.
The like results for `O=C(N[C@H]1C[C@H](CS(=O)(=O)c2cccc(C(F)(F)F)c2)C1)c1cc(F)cc(Cl)c1` [Compound 344, 3-chloro-5-fluoro-N-((1R,3R)-3-((3-(trifluoromethyl)phenylsulfonyl)methyl)cyclobutyl)benzamide] were, in that order, 680 nM, over 10000 nM and over 10000 nM.
The like results for `Cn1nc(C(F)(F)F)cc1C(=O)N[C@H]1CC[C@@](F)(S(=O)(=O)c2cc(F)cc(C(F)(F)F)c2)CC1` [Compound 327, N-((1S,4S)-4-fluoro-4-(3-fluoro-5-(trifluoromethyl)phenylsulfonyl)cyclohexyl)-1-methyl-3-(trifluoromethyl)-1Hpyrazole-5-carboxamide] were, in that order, 630 nM, 2790 nM and 750 nM.
On the same counts, the results for `O=C(N[C@H]1CC[C@@](F)(S(=O)(=O)c2cccc(C(F)(F)F)c2)CC1)C1(C(F)(F)F)CC1` [Compound 275, N-((1S,4S)-4-fluoro-4-(3-(trifluoromethyl)phenylsulfonyl)cyclohexyl)-1-(trifluoromethyl) cyclopropaneCarboxamide] are 700 nM, over 10000 nM and over 10000 nM.
For “4-chloro-2-(methylsulfonyl)-N- ((1R,4R)-4-(3- (trifluoromethyl)phenylsulfonyl) cyclohexyl)benzamide [Compound 121]”, the IC50 stood at 3730 nM in experiment [1], 720 nM in experiment [2] and 930 nM in experiment [3].
The like results for `O=C(NC1CCC(S(=O)(=O)c2cccc(C(F)(F)F)c2)CC1)c1cnc(C(F)(F)F)nc1` (stereo not drawn) [Compound 9, 2-(trifluoromethyl)-N-(4-(3-(trifluoromethyl)phenylsulfonyl)cyclohexyl)pyrimidine-5-carboxamide] were, in that order, 2520 nM, 1130 nM and 1030 nM.
On to `O=C(NC[C@H]1CC[C@@H](S(=O)(=O)c2cccc(C(F)(F)F)c2)CC1)c1ccc(F)c(C(F)(F)F)c1` [Compound 31, 4-fluoro-3-(trifluoromethyl)-N-(((1S,4S)-4-(3-(trifluoromethyl)phenylsulfonyl)cyclohexyl)methyl)benzamide], for which the IC50 in experiment [1] turned out to be 360 nM; in experiment [2], 1150 nM; in experiment [3], 5540 nM.
The like results for `O=C(N[C@H]1CC[C@@H](S(=O)(=O)c2cccc(C(F)(F)F)c2)CC1)c1cc(-c2ccc(F)cc2)n[nH]1` [Compound 46, 3-(4-fluorophenyl)-N-((1S,4S)-4-(3-(trifluoromethyl)phenylsulfonyl)cyclohexyl)-1H-pyrazole-5-carboxamide] were, in that order, 1060 nM, 1250 nM and 910 nM.
On the same counts, the results for `CC(C)S(=O)(=O)c1cc(C(F)(F)F)cnc1C(=O)N[C@H]1CC[C@H](CS(=O)(=O)c2cccc(C(F)(F)F)c2)CC1` [Compound 341, 3-(isopropylsulfonyl)-5-(trifluoromethyl)-N-((1R,4R)-4-((3-(trifluoromethyl)phenylsulfonyl)methyl)cyclohexyl)picolinamide] are 510 nM, 2190 nM and 2020 nM.
Take “5-(trifluoromethyl)-N-((1R,4R)-4- ((3- (trifluoromethyl)phenylsulfonyl) methyl)cyclohexyl)picolinamide [Compound 104]”: the IC50 in experiment [1] was 840 nM; in experiment [2], over 10000 nM; in experiment [3], over 10000 nM.
In the case of `Cc1nn(C)c(C)c1S(=O)(=O)N[C@H]1CC[C@@](F)(S(=O)(=O)c2cccc(C(F)(F)F)c2)CC1` [Compound 293, N-((1S,4S)-4-fluoro-4-(3-(trifluoromethyl)phenylsulfonyl)cyclohexyl)-1,3,5-trimethyl-1H-pyrazole-4-sulfonamide], the IC50 in experiment [1] was 1630 nM; in experiment [2], 4770 nM; in experiment [3] it was 1850 nM.
The like results for `O=C(N[C@H]1CC[C@H](S(=O)(=O)c2cccc(C(F)(F)F)c2)CC1)c1cc(F)cc(Cl)c1` [Compound 60, 3-chloro-5-fluoro-N-((1R,4R)-4-(3-(trifluoromethyl)phenylsulfonyl)cyclohexyl)benzamide] were, in that order, 370 nM, 6440 nM and 3900 nM.
The like results for `O=C(N[C@H]1CC[C@@H](S(=O)(=O)c2cccc(C(F)(F)F)c2)CC1)c1cncc(C(F)(F)F)c1` [Compound 203, 5-(trifluoromethyl)-N-((1S,4S)-4-(3-(trifluoromethyl)phenylsulfonyl)cyclohexyl)nicotinamide] were, in that order, 590 nM, 2570 nM and 1890 nM.
The like results for `Cn1cnc(S(=O)(=O)N[C@H]2CC[C@@](F)(S(=O)(=O)c3cccc(C(F)(F)F)c3)CC2)c1` [Compound 296, N-((1S,4S)-4-fluoro-4-(3-(trifluoromethyl)phenylsulfonyl)cyclohexyl)-1-methyl-1H-imidazole-4-sulfonamide] were, in that order, 4230 nM, 2830 nM and 850 nM.
In the case of `CC(C)(C)NC(=O)CN[C@H]1CC[C@](F)(S(=O)(=O)c2cccc(C(F)(F)F)c2)CC1` [Compound 28, N-tert-butyl-2-((1R,4R)-4-fluoro-4-(3-(trifluoromethyl)phenylsulfonyl)cyclohexylamino)acetamide], the figures for the IC50 in experiment [1], in experiment [2] and in experiment [3] were 940 nM, 1230 nM and 1270 nM, respectively.
